Laboratory results: PMC9977050, “Thymoquinone effect on the Dictyostelium discoideum model correlates with functional roles for glutathione S-transferases in eukaryotic proliferation, chemotaxis, and development” (PLOS ONE, 2023)

Assays:
Experiment in all cases: CDNB conjugation assay, absorbance at […] nm
Format in all cases: biochemical
[1] = biological target: T1, rDdGSTA2 (Dictyostelium discoideum, UniProt Q556G3); conditions: with GSH, 25°C
T1 construct: gene gsta2-1; purified recombinant
T1 sequence (Q556G3 2-198): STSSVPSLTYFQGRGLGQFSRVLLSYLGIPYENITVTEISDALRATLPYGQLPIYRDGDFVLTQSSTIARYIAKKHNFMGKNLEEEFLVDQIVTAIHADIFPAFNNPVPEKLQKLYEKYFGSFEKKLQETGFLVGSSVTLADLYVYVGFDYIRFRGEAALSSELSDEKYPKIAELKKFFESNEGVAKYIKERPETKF

[2] = biological target: T2, rDdGSTA3 (Dictyostelium discoideum, UniProt Q54VI4); conditions: with GSH, 25°C
T2 construct: gene gsta3; purified recombinant
T2 sequence (Q54VI4 2-204): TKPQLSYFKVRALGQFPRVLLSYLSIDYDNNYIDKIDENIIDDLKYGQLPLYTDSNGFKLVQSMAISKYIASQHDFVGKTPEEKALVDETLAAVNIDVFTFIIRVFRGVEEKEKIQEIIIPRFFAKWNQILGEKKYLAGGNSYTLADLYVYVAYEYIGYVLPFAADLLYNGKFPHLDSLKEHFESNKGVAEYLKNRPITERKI

[3] = biological target: T1, rDdGSTA2; conditions: GSH and CDNB as substrates, 25°C; mode not determined; authors caution that thymoquinone may also bind GSH, CDNB or product

Compound	CDNB conjugation assay, absorbance at 340 nm [1]	CDNB conjugation assay, absorbance at 340 nm [2]	% reduction of GS-DNB conjugate at 0.75 μM [3] [%]
O=[N+]([O-])c1ccc(Cl)c([N+](=O)[O-])c1 [CDNB, 1-chloro-2,4-dinitrobenzene]	CDNB activity assays of purified, recombinant GSTs (rDdGSTA2, rDdGSTA3) were conducted	CDNB activity assays of purified, recombinant GSTs (rDdGSTA2, rDdGSTA3) were conducted	
CC1=CC(=O)C(C(C)C)=CC1=O [thymoquinone, 2-isopropyl-5-methylbenzo-1,4-quinone]			61
